Experimental data: PMC9841529 (ACS Infectious Diseases, 2022)
“Also recorded” adds a separate entry of the source. Where two headings read alike, the source gives them in different places. Residues, ends and D or L forms follow the SMILES beside them.

Key:
[1] = system: K. pneumoniae BL13802
[2] = system: B. anthracis Sterne 7702 bacilli (wild-type)
[3] = system: B. anthracis Sterne 7702 ΔftsX bacilli
[4] = system: human RBCs
[5] = system: CXCR3-expressing human T-cells; format: cell-based
[6] = system: primary human T-cells
[7] = system: K. pneumoniae MS84 (disrupted mgrB); format: cell-based, Klebsiella pneumoniae
[8] = system: S. aureus LAC; format: cell-based, Staphylococcus aureus
[9] = system: mcr-1-positive E. coli FI-4531, E. coli J53 and K. pneumoniae 13883; format: cell-based, Escherichia coli; Klebsiella pneumoniae
[10] = pH 7.4
[11] = system: E. cloacae BL36213; format: cell-based, Enterobacter cloacae
[12] = system: N. gonorrhoeae H041; format: cell-based, Neisseria gonorrhoeae
[13] = system: N. gonorrhoeae FA1090; format: cell-based, Neisseria gonorrhoeae
[14] = system: E. faecium AR0575; format: cell-based, Enterococcus faecium
[15] = system: K. pneumoniae BA2664 (mutated pmrB); format: cell-based, Klebsiella pneumoniae
[16] = system: A. baumannii AR0304; format: cell-based, Acinetobacter baumannii
[17] = system: B. anthracis Sterne 7702 spores; format: cell-based, Bacillus anthracis

For KNLLKAVSKERSKRSP [P8], the “% survival (cfu/ml)” value [1] was “efficiently killed K. pneumoniae”.
“PESKAIK(S5A)LLK(S5A)VSKERSKRSP [pre-stapled peptide P9]” showed an EC50 [2] of 4.3 ± 0.4 µM and an EC50 [3] of 5 ± 1.2 µM.
With TISVCPTLRRIVSC [P1scram] the “bacterial viability, % survival (RFU)” value [2] was “abolished antimicrobial activity”.
In the case of Melittin [reference compound], the hemolysis [4] is reported as “high levels of hemolysis”.
With CXCL10 the “chemotactic index (CI)” value [5] was “approximately 6”.
For `CC[C@H](C)[C@H](NC(=O)[C@H](CO)NC(=O)[C@@H](NC(=O)[C@H](CS)NC(=O)[C@@H](NC(=O)[C@H](CS)NC(=O)[C@H](CCCNC(=N)N)NC(=O)[C@@H](NC(=O)[C@@H](NC(=O)[C@H](CCCNC(=N)N)NC(=O)[C@H](CO)NC(=O)[C@H](CC(C)C)NC(=O)[C@@H]1CCCN1C(=O)[C@@H](N)C(C)C)[C@@H](C)O)C(C)C)[C@@H](C)O)[C@@H](C)CC)C(N)=O` [P1] (H-VPLSRTVRCTCISI-NH2), the EC50 ([2]; Sterne 7702 bacilli (wild-type, 4 h)) was 18.1 ± 0.3 µM, the “percentage of dead cells” value [6] was “less than 5%” and the EC50 ([1]; BL13802, 2 h) was 13.4 ± 1.2 µM. For the same compound, the hemolysis [4] was “negligible hemolysis” and the EC50 ([3]; Sterne 7702 ΔftsX bacilli, 4 h) was 53.1 ± 0.8 µM.
In the case of PESKAIKNLLKAVSKERSKRSP [P9], the “bacterial killing (in words)” value [7] is reported as “but not peptide P9”, the “bacterial killing (in words)” value [8] is reported as “lost its capacity to kill any of the isolates examined; also recorded: little to no effect on the viability” and the “bacterial killing (in words)” value [9] is reported as “undiminished”. For the same compound, the “percentage of dead cells” value [6] was “less than 5%”, the “secondary structure content: antiparallel β-sheet” value [10] was 12% and the “secondary structure content: turn” value [10] was 18%. The “secondary structure content: α-helix” value [10] was 35%, the “bacterial killing (in words)” value [11] was “lost its capacity to kill any of the isolates examined; also recorded: except E. cloacae” and the “% survival (cfu/ml)” value [1] was “efficiently killed K. pneumoniae”. The “bacterial survival (RFU)” value [1] was “abolished the ability”, the “bacterial killing (in words)” value [12] was “reductions in bacterial viability were more modest” and the “bacterial killing (in words)” value [13] was “reductions in bacterial viability were more modest”. The “bacterial killing (in words)” value [14] was “lost its capacity to kill any of the isolates examined; also recorded: little to no effect on the viability”, the hemolysis [4] was “negligible hemolysis” and the “bacterial killing (in words)” value [15] was “but not peptide P9”.
In the case of “PESKAIK(S5A)LLK(S5A)VSKERSKRSP (sidechain bridge or staple) [stapled peptide P9]”, the EC50 [2] is reported as 8.5 ± 0.9 µM, the EC50 ([2]; read-out: EC50 values (as stated in running text)) is reported as 4 to 5 µM and the “bacterial killing (in words)” value [7] is reported as “killed colistin-resistant K. pneumoniae”. For the same compound, the “bacterial killing (in words)” value [8] was “particularly susceptible”, the “bacterial killing (in words)” value [9] was “killed colistin-resistant K. pneumoniae and E. coli strains” and the “cytotoxic effects (dead cells)” value [6] was “greatly reduced”. The “percentage of dead cells” value [6] was about 45%, the “bacterial killing (in words)” value [16] was “particularly susceptible” and the “bacterial killing (in words)” value [12] was “particularly susceptible”. For the same compound, the “bacterial killing (in words)” value [13] was “particularly susceptible”, the “bacterial killing (in words)” value [14] was “particularly susceptible” and the hemolysis [4] was “neither pre-stapled nor stapled peptide P9 exerted hemolytic effects”. The “viability of ungerminated spores compared to the initial inoculum” value [17] was “modest reductions in the viability of ungerminated spores”, the “bacterial killing (in words)” value [15] was “killed colistin-resistant K. pneumoniae” and the EC50 [3] was 9.6 ± 1 µM.
With EIIATMKKKGEKRCL [P5] the “percentage of dead cells” value [6] was “less than 5%”, the T-cell migration [5] was “did not elicit T-cell migration” and the hemolysis [4] was “negligible hemolysis”. The “decrease of heat-treated cfu counts versus initial spore inoculum” value [17] was about 200 fold and the “increase of cfu counts without heat treatment versus initial spore inoculum” value [17] was “more than 10 fold”.
